Experiment [1] deals with recombinant 17bHSD13 (N2-K300) (Homo sapiens (Human), UniProt Q7Z5P4). The experiment is described as follows: In Vitro 17bHSD13 Enzyme Assay. It is filed as biochemical. The following applies: 80 nM 17bHSD13, 0.5 mM NAD, 20 μM Estradiol, 2.5 h; estradiol to estrone by LC-MS/MS. The protocol:
In Vitro 17bHSD13 Enzyme Assay
The enzyme reaction was initiated by addition, using CERTUS-FLEX dispenser (GYGER), of 20 μl of substrate solution containing NAD (SIGMA, N1511) and Estradiol (SIGMA, E8875). […] Final assay conditions were 80 nM of 17bHSD13, 0.5 mM of NAD, 20 μM Estradiol and various concentrations of compound in buffer (5 mM EDTA (TEKNOVA E0306), 0.01% DDM (AFFYMETRIX D310) in 50 mM Tris-Cl, pH 7.4).
(§1) SCIEX LC-MS/MS system: Sample was injected with CTC analytical injector, SHIMATZU LC pumps LC20 and analyzed on the SCIEX API 5000 LCMSMS system with the following settings. […] The mobile phases consist of A (water with 0.2% formic acid) and B (acetonitrile with 0.2% formic acid). The LC gradient profile is as follows: 50% B during 0 to 0.5 min, a linear increase to 100% B during 0.5 to 1 min, hold at 100% B during 1 to 1.6 min then back to 50% B from 1.6 to 2 min. […] Detection was performed on a API 5000 LC/MS/MS system with a triple quadrupole mass spectrometer, a TURBO V ion source, in multiple reaction monitoring (MRM) mode at positive polarity with APCI probe. […] The dwell times were 100 ms for each transition and a depolarization and collision energy of 100 and 40, respectively. Data from MS signals was using area under curve (AUC). Ratio=Estrone/(Estrone+Estradiol)
(§2) […] […] was used for curve fitting and calculation of IC50 values.
(§3) Compound effect was calculated with the formula below;
(§4) where X represents the effect in the presence of test compound, min is DMSO and max is the maximum inhibition of enzyme using a known inhibitor as control.

Experiment [2] deals with recombinant 17bHSD4 (M1-N311) (Homo sapiens (Human), UniProt P51659). As to the kind of experiment: In Vitro 17bHSD4 Enzyme Assay. The class given is biochemical. The following applies: 40 nM 17bHSD4, 0.125 mM NAD, 15 μM Estradiol, 1.5 h; NADH fluorescence; read-out: 17HSD17b4 Enzyme assay IC50. The protocol: In Vitro 17bHSD4 Enzyme Assay
10 concentration of compounds (0.2 μl) in DMSO was added to GREINER FLUOTRAC 200 384 well plate (781076) using ECHO dispensing (BECKMAN COULTER). 80 nl of 10 mM Estradiol (SIGMA, E8875) was added using Echo dispensing. The enzyme reaction was initiated by addition, using MULTIDROP COMBI dispensing (THERMO FISHER), of 40 μl of a mix containing recombinant 17bHSD4 (M1-N311) and NAD. Final assay conditions were 40 nM of 17bHSD4, 0.125 mM of NAD, 15 μM Estradiol and various concentrations of compound in buffer (5 mM EDTA (TEKNOVA E0306), 0.01% DDM (AFFYMETRIX D310) in 50 mM Tris-Cl, pH 7.4). After each addition plates were centrifuged for 1 min at 150×g (EPPENDORF, 5810R, A-4-81). NADH formation was measured by fluorescence intensity (FI) (Ex360/Em460) at time zero (to) and at 1.5 h (t1) in a PHERASTAR FSX (BMG LABTECH). FI for each sample was calculated as FI at t1 minus FI at t0.
as §2, §3, §4

The target in experiment [3] is over expressed HSD17β13 in HEK293S cells (Homo sapiens (Human), UniProt Q7Z5P4). The experiment is described as follows: In Vitro 17bHSD13 Cell Assay. It is filed as cell-based. The following applies: HEK293S cells over expressing HSD17β13; estradiol to estrone conversion, 18 h, LC-MS/MS; read-out: 17bHSD1713 Cell assay IC50. As to the method: In Vitro 17bHSD13 Cell Assay
Inhibition of 17bHSD13 was measured in a cell-based assay with over expressed HSD17β13 in HEK293S cells, measuring estradiol to estrone conversion by LCMS/MS.
Samples were analyzed using LC-MS/MS.
as §1, with “analysed” for “analyzed”
as §2, §3, §4

The target in experiment [4] is over expressed HSD17β9 in HEK293S cells (Homo sapiens (Human), UniProt Q92781). The experiment is described as follows: In Vitro 17bHSD9 Cell Assay. The class given is cell-based. The following applies: HEK293S cells over expressing HSD17β9; retinol to retinal conversion, 18 h, LC-MS/MS; read-out: 17bHSD9 Cell assay IC50. The protocol:
In Vitro 17bHSD9 Cell Assay
Inhibition of 17bHSD9 was measured in a cell-based assay with over expressed HSD17β9 in HEK293S cells, measuring retinol to retinal conversion by LCMS/MS.
Cells were plated in 384 well plates (GREINER CELL culture plate 384w black/clear Poly-D-Lysine) at 10 K c/w in 30 μl of culture media (DMEM with GLUTAMAX plus 10% FBS). […] After 18 h of cell culturing for 20 μl of media was transferred using BRAVO dispensing robot (AGILENT) to a GREINER PP 384 well plate (781280) and 40 μl of 50% acetonitrile was added. Samples were analyzed using LC-MS/MS.
SCIEX LC-MS/MS system: Sample was injected with CTC analytical injector, SHIMATZU LC pumps LC20 and analysed on the SCIEX API 5000 LCMSMS system with the following settings. Samples were chromatographed on a WATERS, symmetry, C8, 3.5 μm, 2.1×50 mm) column at constant flow rate of 0.5 mL/min. The mobile phases consists of A (water with 0.2% formic acid) and B (acetonitrile with 0.2% formic acid). The LC gradient profile is as follows: 50% B during 0 to 0.1 min, a linear increase to 100% B during 0.1 to 0.8 min, hold at 100% B during 0.8 to 1.5 min then back to 50% B from 1.5 to 1.6 min and hold during run time. The run time was 2 min with retention times of approximately 1.54 and 1.62 min for Retinol and Retinal, respectively. Detection was performed on a API 5000 LC/MS/MS system with a triple quadrupole mass spectrometer, a TURBO V ion source, in multiple reaction monitoring (MRM) mode at positive polarity with ESI probe. The MRM pairs were m/z 269.3 to m/z 93.0 and m/z 285.2 to 161.0. for Retinol and Retinal, respectively. The dwell times were 100 ms for each transition and a depolarization and collision energy of 50 and 25, respectively. Data from MS signals was using area under curve (AUC). Ratio=Retinal/(Retinal+Retinol).
as §2, §3, §4

Structures are written as SMILES.

recombinant 17bHSD4 (M1-N311), sequence (P51659 1-311): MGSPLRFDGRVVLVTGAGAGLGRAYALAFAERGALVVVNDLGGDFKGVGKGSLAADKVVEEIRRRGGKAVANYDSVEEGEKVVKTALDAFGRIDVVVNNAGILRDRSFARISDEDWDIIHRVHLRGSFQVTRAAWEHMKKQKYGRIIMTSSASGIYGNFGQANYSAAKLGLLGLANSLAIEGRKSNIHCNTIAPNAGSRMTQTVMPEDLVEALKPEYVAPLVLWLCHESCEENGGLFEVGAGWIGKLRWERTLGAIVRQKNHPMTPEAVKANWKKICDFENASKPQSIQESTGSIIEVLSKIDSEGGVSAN
over expressed HSD17β13 in HEK293S cells, sequence (Q7Z5P4 20-300): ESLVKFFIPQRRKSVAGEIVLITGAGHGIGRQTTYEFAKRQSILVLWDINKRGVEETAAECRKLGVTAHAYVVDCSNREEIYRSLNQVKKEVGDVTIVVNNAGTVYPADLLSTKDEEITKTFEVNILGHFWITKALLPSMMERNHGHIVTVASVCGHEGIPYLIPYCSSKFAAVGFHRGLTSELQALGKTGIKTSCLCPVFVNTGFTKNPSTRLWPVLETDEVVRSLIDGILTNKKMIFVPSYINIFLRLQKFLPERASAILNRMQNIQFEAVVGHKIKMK
recombinant 17bHSD13 (N2-K300), sequence (Q7Z5P4 2-300): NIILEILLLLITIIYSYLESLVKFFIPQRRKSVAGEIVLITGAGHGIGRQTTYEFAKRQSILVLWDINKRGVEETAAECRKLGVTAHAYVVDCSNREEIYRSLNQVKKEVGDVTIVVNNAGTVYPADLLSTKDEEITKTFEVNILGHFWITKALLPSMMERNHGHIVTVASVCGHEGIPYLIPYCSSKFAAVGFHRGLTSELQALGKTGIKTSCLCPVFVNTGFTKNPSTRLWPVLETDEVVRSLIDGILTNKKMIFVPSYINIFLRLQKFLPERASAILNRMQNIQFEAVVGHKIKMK
over expressed HSD17β9 in HEK293S cells, sequence (Q92781 whole entry): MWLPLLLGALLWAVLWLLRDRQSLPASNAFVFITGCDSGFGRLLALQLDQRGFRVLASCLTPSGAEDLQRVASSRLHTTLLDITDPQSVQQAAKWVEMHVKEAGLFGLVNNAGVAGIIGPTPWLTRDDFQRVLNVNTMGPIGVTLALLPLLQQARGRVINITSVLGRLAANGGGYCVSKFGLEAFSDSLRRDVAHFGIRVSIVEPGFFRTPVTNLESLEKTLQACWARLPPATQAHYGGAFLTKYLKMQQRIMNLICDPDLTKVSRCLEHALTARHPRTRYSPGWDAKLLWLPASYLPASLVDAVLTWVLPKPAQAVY

As to `C[C@@H]1COC[C@H](C)N1C(=O)c1noc(-c2cc(F)c(F)c(O)c2F)n1` [Example 36, ((3R,5S)-3,5-Dimethylmorpholino)(5-(2,4,5-trifluoro-3-hydroxyphenyl)-1,2,4-oxadiazol-3-yl)methanone], the half-inhibitory concentration (IC50) in experiment [1] was 1.03 µM; in experiment [2] it was over 50 µM; in experiment [3], 1.32 µM; in experiment [4], over 50 µM.
Regarding `COc1ccc(OC2CCN(C(=O)c3noc(-c4cc(F)c(F)c(O)c4F)c3C#N)CC2)nc1` [Example 25, 3-(4-((5-Methoxypyridin-2-yl)oxy)piperidine-1-carbonyl)-5-(2,4,5-trifluoro-3-hydroxyphenyl)isoxazole-4-carbonitrile], the 50% inhibitory concentration (IC50) in experiment [1] was 0.288 µM; in experiment [2], 24.8 µM; in experiment [3], 0.82 µM; in experiment [4], 22.7 µM.
The corresponding values for `CC[C@H]1CN(C(=O)c2noc(-c3cc(F)c(F)c(O)c3F)n2)CC(=O)N1` [Example 34, (S)-6-Ethyl-4-(5-(2,4,5-trifluoro-3-hydroxyphenyl)-1,2,4-oxadiazole-3-carbonyl)piperazin-2-one] are 0.581 µM, over 50 µM, over 50 µM and over 50 µM.
For the compound `O=C(c1noc(-c2cc(F)c(F)c(O)c2F)n1)N1CCCCC1` [Example 44, Piperidin-1-yl(5-(2,4,5-trifluoro-3-hydroxyphenyl)-1,2,4-oxadiazol-3-yl)methanone], the IC50 in experiment [1] worked out at 0.432 µM; in experiment [2] it was 38.4 µM; in experiment [3], 0.19 µM; in experiment [4], 11.2 µM.
Taken in the same sequence, the figures for `COc1ccccc1N1CCN(C(=O)c2noc(-c3cc(F)c(F)c(O)c3F)n2)CC1` [Example 84, (4-(2-Methoxyphenyl)piperazin-1-yl)(5-(2,4,5-trifluoro-3-hydroxyphenyl)-1,2,4-oxadiazol-3-yl)methanone] were 0.198 µM, 19.8 µM, 0.3 µM and over 50 µM.
Take `N#Cc1cccc(C2CN(C(=O)c3noc(-c4cc(F)c(F)c(O)c4F)n3)CCN2)c1` (stereo not drawn) [Example 42, 3-(4-(5-(2,4,5-Trifluoro-3-hydroxyphenyl)-1,2,4-oxadiazole-3-carbonyl)piperazin-2-yl)benzonitrile]: the IC50 in experiment [1] is 0.908 µM; in experiment [2], over 50 µM; in experiment [3], 10 µM; in experiment [4] it was over 50 µM.
For the compound `C[C@H]1CN(C(=O)c2noc(-c3cc(F)c(F)c(O)c3F)n2)C[C@H](C)O1` [Example 54, ((2S,6S)-2,6-Dimethylmorpholino)(5-(2,4,5-trifluoro-3-hydroxyphenyl)-1,2,4-oxadiazol-3-yl)methanone], the 50% inhibitory concentration (IC50) in experiment [1] was 0.392 µM; in experiment [2] it was over 50 µM; in experiment [3], 0.15 µM; in experiment [4], over 50 µM.
As to `O=C(c1noc(-c2cc(F)c(F)c(O)c2F)n1)N1CC=C(c2ccccc2)CC1` [Example 62, (4-Phenyl-3,6-dihydropyridin-1(2H)-yl)(5-(2,4,5-trifluoro-3-hydroxyphenyl)-1,2,4-oxadiazol-3-yl)methanone], the IC50 in experiment [1] was 0.046 µM; in experiment [2] it was 3 µM; in experiment [3], 0.96 µM; in experiment [4], 15.8 µM.
The corresponding values for `CC(C)c1noc(C2=CCN(C(=O)c3noc(-c4cc(F)c(F)c(O)c4F)n3)CC2)n1` [Example 107, (4-(3-Isopropyl-1,2,4-oxadiazol-5-yl)-3,6-dihydropyridin-1(2H)-yl)(5-(2,4,5-trifluoro-3-hydroxyphenyl)-1,2,4-oxadiazol-3-yl)methanone] are 0.143 µM, 10.5 µM, 0.37 µM and 5 µM.
The corresponding values for `O=C(c1cc(-c2ccc(F)c(O)c2)no1)N1CCC(c2ccccc2)C1` (stereo not drawn) [Example 6, (3-(4-Fluoro-3-hydroxyphenyl)isoxazol-5-yl)(3-phenylpyrrolidin-1-yl)methanone] are 0.041 µM, 89.1 µM, 0.98 µM and over 50 µM.
The corresponding values for `O=C(c1cc(-c2cc(F)c(F)c(O)c2F)on1)N1CC[C@H](c2ccc(Cl)cc2)C1` [Example 8, (R)-(3-(4-Chlorophenyl)pyrrolidin-1-yl)(5-(2,4,5-trifluoro-3-hydroxyphenyl)isoxazol-3-yl)methanone] are 0.047 µM, 6.7 µM, 0.61 µM and 25 µM.
`C[C@@H]1CCN(C(=O)c2noc(-c3cc(F)c(F)c(O)c3F)n2)CCO1` [Example 51, (R)-(7-Methyl-1,4-oxazepan-4-yl)(5-(2,4,5-trifluoro-3-hydroxyphenyl)-1,2,4-oxadiazol-3-yl)methanone]: the IC50 was 1.69 µM in experiment [1], over 50 µM in experiment [2], 2.69 µM in experiment [3] and over 50 µM in experiment [4].

In general, IC50 refers to the concentration that gives 50% inhibition.

For the origin of these results see patent publication US20250011311A1, “AMIDO HETEROAROMATIC COMPOUNDS” (AstraZeneca AB, priority 2022, published 2025).
